{"source": "patent US20250109121A1", "about": "“POTENT AND SELECTIVE SMARCA2 DEGRADING CHIMERIC MOLECULES AS CANCER THERAPEUTICS” (BOARD OF REGENTS, THE UNIVERSITY OF TEXAS SYSTEM, priority 2021, published 2025)", "assay_type_in_all_cases": "cell-based", "key": {"SMARCA4 [1]": {"test_system": "SMARCA4", "assay": "SMARCA4 degradation in cell lines, western blot", "details": "H1792 and H1299 cells, 72 h or 96 h, 0.001-10 μm"}, "SMARCA2 [2]": {"biological_target": "T1, SMARCA2 (Homo sapiens, UniProt P51531)", "T1 sequence (P51531 whole entry)": "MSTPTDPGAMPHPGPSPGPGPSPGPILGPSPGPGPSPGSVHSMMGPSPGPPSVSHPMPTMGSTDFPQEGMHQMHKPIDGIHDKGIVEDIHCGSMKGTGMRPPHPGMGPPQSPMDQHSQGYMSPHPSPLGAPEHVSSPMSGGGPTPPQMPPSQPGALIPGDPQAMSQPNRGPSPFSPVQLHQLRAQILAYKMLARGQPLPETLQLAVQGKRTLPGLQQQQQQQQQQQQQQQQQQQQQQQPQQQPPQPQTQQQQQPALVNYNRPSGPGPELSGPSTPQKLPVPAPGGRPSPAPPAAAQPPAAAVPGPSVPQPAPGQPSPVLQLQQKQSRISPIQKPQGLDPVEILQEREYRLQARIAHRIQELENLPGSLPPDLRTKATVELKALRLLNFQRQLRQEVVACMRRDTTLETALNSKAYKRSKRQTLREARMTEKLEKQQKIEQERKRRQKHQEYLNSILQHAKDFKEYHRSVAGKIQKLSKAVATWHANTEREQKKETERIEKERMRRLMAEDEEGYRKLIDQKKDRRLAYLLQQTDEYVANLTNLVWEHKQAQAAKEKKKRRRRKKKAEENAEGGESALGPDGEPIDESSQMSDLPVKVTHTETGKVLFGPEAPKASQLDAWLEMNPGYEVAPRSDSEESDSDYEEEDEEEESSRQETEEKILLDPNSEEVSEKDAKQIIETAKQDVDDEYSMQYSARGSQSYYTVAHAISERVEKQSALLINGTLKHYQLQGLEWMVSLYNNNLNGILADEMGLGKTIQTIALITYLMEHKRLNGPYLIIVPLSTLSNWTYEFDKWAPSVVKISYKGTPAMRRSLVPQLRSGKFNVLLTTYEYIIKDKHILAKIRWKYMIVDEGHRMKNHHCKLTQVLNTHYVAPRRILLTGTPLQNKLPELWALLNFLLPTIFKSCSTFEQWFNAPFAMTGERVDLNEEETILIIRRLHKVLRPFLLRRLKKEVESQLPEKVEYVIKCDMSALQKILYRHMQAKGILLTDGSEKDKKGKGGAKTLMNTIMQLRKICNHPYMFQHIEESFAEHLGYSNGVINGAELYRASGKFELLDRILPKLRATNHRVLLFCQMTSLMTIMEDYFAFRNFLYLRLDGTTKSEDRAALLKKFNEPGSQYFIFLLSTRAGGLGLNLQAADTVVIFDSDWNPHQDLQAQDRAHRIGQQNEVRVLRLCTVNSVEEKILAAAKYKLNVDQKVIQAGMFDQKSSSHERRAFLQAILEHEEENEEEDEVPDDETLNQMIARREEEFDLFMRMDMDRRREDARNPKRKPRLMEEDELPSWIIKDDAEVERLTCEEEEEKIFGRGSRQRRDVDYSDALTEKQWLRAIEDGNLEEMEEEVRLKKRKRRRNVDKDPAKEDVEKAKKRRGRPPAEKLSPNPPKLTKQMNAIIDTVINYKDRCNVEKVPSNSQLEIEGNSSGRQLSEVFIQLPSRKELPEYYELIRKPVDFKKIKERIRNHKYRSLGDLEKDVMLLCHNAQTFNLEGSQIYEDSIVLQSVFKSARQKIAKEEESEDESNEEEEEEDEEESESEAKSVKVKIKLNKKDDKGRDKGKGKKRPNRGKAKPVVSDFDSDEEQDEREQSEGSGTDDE", "assay": "SMARCA2 degradation in cell lines, western blot", "details": "for SMARCA2 degradation (western blot, in words): 0.001-10 μm; for SMARCA2 expression at 100 nM (in words): H1792 and H1299 cells", "experimental": "Cell lines with wild-type SMARCA4 (H1975, H1792, H2122, and H441) were treated with DMSO or 0.001, 0.01, 0.1, 1, or 10 μm of ACBI1 (degrader of SMARCA2, SMARCA4 and polybromo-associated BAF complex PBRM1) or Compound 101 and expression levels of SMARCA2 (FIG. 2A) and SMARCA4 (FIG. 2B) were detected by western blot.\n(§1) Cell lines with wild-type SMARCA4 (H1792) and mutant SMARCA4 (H1299) were treated for 72 h or 96 h with DMSO or 0.001, 0.01, 0.1, 1, or 10 μm Compound 103 and analyzed by western blot for SMARCA2, SMARCA4, and PBRM1 expression (FIGS. 4A, 4B, and 4C).\n(§2) Cell lines with wild-type SMARCA4 (H1792) and mutant SMARCA4 (H1299) were treated for 72 h or 96 h with DMSO or 0.001, 0.01, 0.1, 1, or 10 μm Compound 102 and analyzed by western blot for SMARCA2, SMARCA4, and PBRM1 expression (FIGS. 5A, 5B, and 5C).\n(§3) Cell lines with wild-type SMARCA4 (H1975) were treated with DMSO or 0.001, 0.01, 0.1, 1, or 10 μm of Compounds 104, 105, 106, 107, or 108 and analyzed by western blot for SMARCA2, SMARCA4, and PBRM1 expression (FIGS. 6A and 6B)."}, "PBRM1": {"biological_target": "T2, PBRM1 (Homo sapiens, UniProt Q86U86)", "T2 construct": "heterobifunctional compounds, which recruit endogenous proteins to a ubiquitin ligase for degradation; endogenous in cells; host or cells: H1792, H1299, H1975", "T2 sequence (Q86U86 whole entry)": "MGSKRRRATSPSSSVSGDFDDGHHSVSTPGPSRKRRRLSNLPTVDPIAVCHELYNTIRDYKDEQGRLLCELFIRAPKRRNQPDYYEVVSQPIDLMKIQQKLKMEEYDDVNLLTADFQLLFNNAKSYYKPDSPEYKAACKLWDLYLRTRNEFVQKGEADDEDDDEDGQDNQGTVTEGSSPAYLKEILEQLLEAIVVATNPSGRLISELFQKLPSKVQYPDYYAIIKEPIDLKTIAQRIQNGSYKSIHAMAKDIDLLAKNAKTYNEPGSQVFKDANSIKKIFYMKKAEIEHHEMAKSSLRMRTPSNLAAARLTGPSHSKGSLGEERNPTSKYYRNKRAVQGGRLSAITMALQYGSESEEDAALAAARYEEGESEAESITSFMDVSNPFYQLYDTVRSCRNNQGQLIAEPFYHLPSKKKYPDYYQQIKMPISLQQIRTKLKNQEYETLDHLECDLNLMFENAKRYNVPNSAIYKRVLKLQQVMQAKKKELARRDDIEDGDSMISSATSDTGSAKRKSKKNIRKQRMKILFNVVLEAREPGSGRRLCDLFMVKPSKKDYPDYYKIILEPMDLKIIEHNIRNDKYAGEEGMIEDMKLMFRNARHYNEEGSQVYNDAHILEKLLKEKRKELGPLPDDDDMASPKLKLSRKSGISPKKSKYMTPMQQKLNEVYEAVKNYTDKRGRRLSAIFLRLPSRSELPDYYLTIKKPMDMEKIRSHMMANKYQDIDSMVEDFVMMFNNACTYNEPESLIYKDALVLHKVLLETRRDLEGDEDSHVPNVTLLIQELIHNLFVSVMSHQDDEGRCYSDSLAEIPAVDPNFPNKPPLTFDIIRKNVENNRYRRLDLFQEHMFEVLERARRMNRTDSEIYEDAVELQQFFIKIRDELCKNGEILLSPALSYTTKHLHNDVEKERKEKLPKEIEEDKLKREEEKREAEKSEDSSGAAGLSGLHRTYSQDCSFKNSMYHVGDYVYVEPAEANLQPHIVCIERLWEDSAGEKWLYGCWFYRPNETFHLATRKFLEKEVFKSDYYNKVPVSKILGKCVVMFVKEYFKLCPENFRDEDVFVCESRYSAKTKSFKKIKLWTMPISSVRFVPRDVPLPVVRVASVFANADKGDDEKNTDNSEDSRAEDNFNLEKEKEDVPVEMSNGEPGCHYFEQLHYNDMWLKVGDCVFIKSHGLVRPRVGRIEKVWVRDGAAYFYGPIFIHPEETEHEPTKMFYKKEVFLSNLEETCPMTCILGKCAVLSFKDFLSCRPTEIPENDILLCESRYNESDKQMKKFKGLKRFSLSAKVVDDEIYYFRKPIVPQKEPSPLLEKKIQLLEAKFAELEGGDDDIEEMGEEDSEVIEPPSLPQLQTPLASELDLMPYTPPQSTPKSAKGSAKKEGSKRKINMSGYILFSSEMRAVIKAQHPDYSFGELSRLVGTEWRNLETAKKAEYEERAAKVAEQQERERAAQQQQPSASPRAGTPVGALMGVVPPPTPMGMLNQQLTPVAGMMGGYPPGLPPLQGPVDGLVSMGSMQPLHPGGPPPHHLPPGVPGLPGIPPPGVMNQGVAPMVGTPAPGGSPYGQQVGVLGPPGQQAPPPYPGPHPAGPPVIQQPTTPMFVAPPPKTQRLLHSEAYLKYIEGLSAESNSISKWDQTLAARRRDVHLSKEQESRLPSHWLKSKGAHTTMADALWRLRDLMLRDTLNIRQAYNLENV", "assay": "PBRM1 expression in cell lines, western blot", "details": "H1792 and H1299 cells, 72 h or 96 h, 0.001-10 μm", "experimental": "as §1, §2, §3"}, "wild-type SMARCA4 cells": {"test_system": "wild-type SMARCA4 cells", "assay": "Colony assay / cell proliferation, wild-type SMARCA4 cell lines as a group", "details": "HCC44, H2122, H1792, H1975; 0.001-10 μm", "experimental": "(§4) Cell lines with wild-type SMARCA4 (HCC44, H2122, H1792 and H1975) and cell lines with mutant SMARCA4 (H1693, HCC515, H322, and H1299) were seeded in appropriate dilutions to form colonies in about 1-3 weeks. Cells were treated with ACBI1 or Compound 101 at concentrations of 0.001, 0.01, 0.1, 1, and 10 μm. Colonies were fixed with glutaraldehyde (6% v/v), stained with crystal violet (0.5% w/v) and the percent area of colonies was determined (FIGS. 3A and 3B). In cell lines with wild-type SMARCA4, inhibition of colony growth was more pronounced after treatment with ACBI1 than Compound 101 (FIG. 3A)."}, "SMARCA2 [3]": {"biological_target": "T1, SMARCA2", "assay": "SMARCA2 degradation in cell lines, western blot"}, "SMARCA4 [4]": {"biological_target": "SMARCA4 (Homo sapiens, UniProt P51532)", "sequence (P51532 whole entry)": "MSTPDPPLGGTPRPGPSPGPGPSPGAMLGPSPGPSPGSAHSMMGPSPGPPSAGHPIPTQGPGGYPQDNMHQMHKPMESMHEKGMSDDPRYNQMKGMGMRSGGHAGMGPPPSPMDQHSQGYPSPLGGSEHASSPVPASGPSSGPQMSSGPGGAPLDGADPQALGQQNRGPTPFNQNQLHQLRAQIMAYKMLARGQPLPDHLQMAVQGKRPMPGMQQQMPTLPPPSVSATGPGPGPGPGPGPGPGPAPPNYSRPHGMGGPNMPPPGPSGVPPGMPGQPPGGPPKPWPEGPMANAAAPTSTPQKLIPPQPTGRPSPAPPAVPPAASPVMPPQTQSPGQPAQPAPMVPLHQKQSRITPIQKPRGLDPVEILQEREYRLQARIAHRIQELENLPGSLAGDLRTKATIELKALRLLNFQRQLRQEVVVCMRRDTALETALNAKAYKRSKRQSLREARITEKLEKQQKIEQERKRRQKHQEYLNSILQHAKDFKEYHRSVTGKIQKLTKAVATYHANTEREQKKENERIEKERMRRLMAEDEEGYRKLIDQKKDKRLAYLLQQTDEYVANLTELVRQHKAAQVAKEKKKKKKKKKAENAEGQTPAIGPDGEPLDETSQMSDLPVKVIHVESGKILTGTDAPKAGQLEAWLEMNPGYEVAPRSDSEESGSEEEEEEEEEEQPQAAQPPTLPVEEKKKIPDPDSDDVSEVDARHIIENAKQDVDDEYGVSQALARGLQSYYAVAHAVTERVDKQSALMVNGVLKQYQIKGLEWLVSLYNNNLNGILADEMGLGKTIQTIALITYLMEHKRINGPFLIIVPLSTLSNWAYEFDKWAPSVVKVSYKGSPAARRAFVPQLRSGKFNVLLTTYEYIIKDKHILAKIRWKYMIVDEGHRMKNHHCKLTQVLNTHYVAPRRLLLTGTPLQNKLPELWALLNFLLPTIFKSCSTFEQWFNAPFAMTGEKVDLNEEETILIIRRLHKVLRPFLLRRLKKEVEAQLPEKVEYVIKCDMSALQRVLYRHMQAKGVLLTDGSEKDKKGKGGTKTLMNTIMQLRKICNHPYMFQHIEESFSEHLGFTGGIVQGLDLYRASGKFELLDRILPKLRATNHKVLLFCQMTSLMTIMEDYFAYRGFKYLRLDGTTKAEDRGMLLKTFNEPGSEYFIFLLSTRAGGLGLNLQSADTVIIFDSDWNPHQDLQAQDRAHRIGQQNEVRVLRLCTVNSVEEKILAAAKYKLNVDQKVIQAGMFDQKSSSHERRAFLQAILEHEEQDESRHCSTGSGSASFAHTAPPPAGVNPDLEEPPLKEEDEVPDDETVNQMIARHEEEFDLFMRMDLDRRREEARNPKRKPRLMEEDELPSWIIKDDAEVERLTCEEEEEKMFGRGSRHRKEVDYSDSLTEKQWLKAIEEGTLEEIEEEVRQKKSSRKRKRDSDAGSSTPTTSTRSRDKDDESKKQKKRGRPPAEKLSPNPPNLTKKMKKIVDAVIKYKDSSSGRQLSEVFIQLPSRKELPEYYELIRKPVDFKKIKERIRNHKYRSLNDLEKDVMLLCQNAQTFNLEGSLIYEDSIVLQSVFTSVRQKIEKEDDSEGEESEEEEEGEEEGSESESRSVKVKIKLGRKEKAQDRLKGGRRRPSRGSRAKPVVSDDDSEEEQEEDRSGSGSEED", "assay": "SMARCA4 degradation in cell lines, western blot", "details": "for DC50: read-out: SMARCA4 DC50"}, "mutant SMARCA4 cells": {"test_system": "mutant SMARCA4 cells", "assay": "Colony assay / cell proliferation, mutant SMARCA4 cell lines as a group", "details": "H1693, HCC515, H322, H1299; 0.001-10 μm", "experimental": "as §4"}, "[5]": {"details": "H1792 (wild-type SMARCA4) and H1299 (mutant SMARCA4) cells, 72 h or 96 h"}, "[6]": {"details": "H441, wild-type SMARCA4 cell line"}, "[7]": {"details": "H1792, wild-type SMARCA4 cell line"}, "[8]": {"details": "H2122, wild-type SMARCA4 cell line"}, "[9]": {"details": "H1975, wild-type SMARCA4 cell line"}}, "note": "Like-named read-outs stand apart in the source and are kept apart here."}
{"smiles": "Nc1nnc(-c2ccccc2O)cc1N1CCN(Cc2ccc(N3CCC(CN4CCN(c5ccc6c(c5)C(=O)N(C5CCC(=O)NC5=O)C6=O)CC4)CC3)c(F)c2)CC1", "note": "(centres unmarked) [Compound 103]", "values": [{"measurement": "SMARCA4 expression (western blot, in words)", "setting": "SMARCA4 [1]", "result": "reduced expression of SMARCA4 in H1792 cells"}, {"measurement": "SMARCA2 degradation (western blot, in words)", "setting": "SMARCA2 [2]; [5]", "result": "efficiently degraded SMARCA2"}, {"measurement": "SMARCA2 expression at 100 nM (in words)", "setting": "SMARCA2 [2]", "result": "significantly inhibited SMARCA2 expression"}, {"measurement": "PBRM1 expression (western blot, in words)", "setting": "PBRM1", "result": "did not have a significant effect on the expression of PBRM1"}]}
{"smiles": "Nc1nnc(-c2ccccc2O)cc1N1CCN(Cc2ccc(N3CCN(CCOc4cccc5c4C(=O)N(C4CCC(=O)NC4=O)C5=O)CC3)c(F)c2)CC1", "note": "(centres unmarked) [Compound 102]", "values": [{"measurement": "SMARCA4 expression (western blot, in words)", "setting": "SMARCA4 [1]", "result": "reduced expression of SMARCA4"}, {"measurement": "SMARCA2 degradation (western blot, in words)", "setting": "SMARCA2 [2]; [5]", "result": "efficiently degraded SMARCA2"}, {"measurement": "SMARCA2 expression at 100 nM (in words)", "setting": "SMARCA2 [2]", "result": "significantly inhibited SMARCA2 expression"}, {"measurement": "PBRM1 expression (western blot, in words)", "setting": "PBRM1", "result": "did not have a significant effect on the expression of PBRM1"}]}
{"smiles": "Cc1ncsc1-c1ccc(CNC(=O)[C@@H]2C[C@@H](O)CN2C(=O)[C@@H](NC(=O)C2(F)CC2)C(C)(C)C)c(OCCOc2ccc(CN3CCN(c4cc(-c5ccccc5O)nnc4N)CC3)cc2)c1", "note": "[ACBI1, reference compound]", "values": [{"measurement": "colony growth / proliferation of wild-type SMARCA4 cells (in words)", "setting": "wild-type SMARCA4 cells", "result": "inhibited wild-type and mutant SMARCA4 cells"}, {"measurement": "SMARCA2 Dmax (%)", "setting": "SMARCA2 [3]; [6]", "result": 97, "unit": "%"}, {"measurement": "SMARCA2 Dmax (%)", "setting": "SMARCA2 [3]; [7]", "result": 97, "unit": "%"}, {"measurement": "SMARCA2 Dmax (%)", "setting": "SMARCA2 [3]; H1975, wild-type SMARCA4 cell line, maximum degradation as percentage of DMSO control", "result": 98, "unit": "%"}, {"measurement": "SMARCA2 Dmax (%)", "setting": "SMARCA2 [3]; [8]", "result": 95, "unit": "%"}, {"measurement": "SMARCA4 Dmax (%)", "setting": "SMARCA4 [4]; [6]", "result": 99, "unit": "%"}, {"measurement": "DC50", "setting": "SMARCA4 [4]; [6]", "result": 36, "unit": "nM"}, {"measurement": "SMARCA4 Dmax (%)", "setting": "SMARCA4 [4]; [7]", "result": 98, "unit": "%"}, {"measurement": "DC50", "setting": "SMARCA4 [4]; [7]", "result": 18, "unit": "nM"}, {"measurement": "SMARCA4 Dmax, span over cell lines", "setting": "SMARCA4 [4]; H1975, H1792, H2122, H441 (Table 3)", "result": "97-99%"}, {"measurement": "SMARCA4 degradation (western blot, in words)", "setting": "SMARCA4 [4]; H1975, H1792, H2122, H441, 0.001-10 μm, increasing concentrations", "result": "degraded SMARCA2 and SMARCA4"}, {"measurement": "SMARCA4 Dmax (%)", "setting": "SMARCA4 [4]; [9]", "result": 98, "unit": "%"}, {"measurement": "DC50", "setting": "SMARCA4 [4]; [9]", "result": 98, "unit": "nM"}, {"measurement": "SMARCA4 Dmax (%)", "setting": "SMARCA4 [4]; [8]", "result": 97, "unit": "%"}, {"measurement": "DC50", "setting": "SMARCA4 [4]; [8]", "result": 32, "unit": "nM"}, {"measurement": "DC50", "setting": "SMARCA2 [2]; [6]", "result": 11, "unit": "nM"}, {"measurement": "DC50", "setting": "SMARCA2 [2]; [7]", "result": 7, "unit": "nM"}, {"measurement": "SMARCA2 degradation (western blot, in words)", "setting": "SMARCA2 [2]; H1975, H1792, H2122, H441, increasing concentrations", "result": "degraded SMARCA2 and SMARCA4"}, {"measurement": "DC50", "setting": "SMARCA2 [2]; H1975, wild-type SMARCA4 cell line, concentration at which 50% of the target protein is degraded", "result": 51, "unit": "nM"}, {"measurement": "DC50", "setting": "SMARCA2 [2]; [8]", "result": 13, "unit": "nM"}, {"measurement": "colony growth / proliferation of mutant SMARCA4 cells (in words)", "setting": "mutant SMARCA4 cells", "result": "inhibited wild-type and mutant SMARCA4 cells"}]}
